Values quoted from earlier work in patent publication US20250065012A1, “DIRECTIONAL AND TEMPORAL RELEASE OF DRUGS FROM MEDICAL DEVICES” (NANO THERAPEUTICS PRIVATE LIMITED, priority 2022, published 2025).
Counter-ions that a name gives are not always drawn.

Legend:
[1] = system: platelet aggregation; conditions: after systemic administration
[2] = injected intravenously

| Compound | platelet aggregation inhibition [1] | increase in bleeding time [2] | increase in clotting time [2] |
| --- | --- | --- | --- |
| CCCCS(=O)(=O)N[C@@H](Cc1ccc(OCCCCC2CCNCC2)cc1)C(=O)O [Tirofiban] | up to 96% | – | – |
| CCCCS(=O)(=O)N[C@@H](Cc1ccc(OCCCCC2CCNCC2)cc1)C(=O)O [Tirofiban HCl] | – | 3-4 fold | 3-4 fold |
